We go through 20 molecules from PMC6270837, “Preparation and Biological Properties of Ring-Substituted Naphthalene-1-Carboxanilides” (Molecules, 2014).

Values joined by “and” are separate entries in the source; they are usually repeats but may differ in a detail not shown here. Equal entries are not always repeated. Where two headings read alike, the source gives them in different places.

In series [1] the test system is Mycobacterium avium subsp. paratuberculosis CIT03. Kind of series: In vitro antimycobacterial evaluation (MIC/IC90, alamarBlue). The class given is cell-based. The settings on record: for MIC: Mycobacterium avium. On the procedure:
The MIC/IC90 value is routinely and widely used in bacterial assays and is a standard detection limit according to the Clinical and Laboratory Standards Institute.
A well-characterized clinical isolate of Mycobacterium avium subsp. paratuberculosis (CIT03) was grown in Middlebrook broth (MB), supplemented with Oleic-Albumin-Dextrose-Catalase supplement (OADC, Becton, Dickinson and Comp., Franklin Lakes, NJ, USA) and mycobactin J (2 µg/mL). Identification of this isolate was performed using biochemical and molecular protocols. At log phase growth, a culture sample (10 mL) was centrifuged at 15,000 rpm/20 min using a bench top centrifuge (Model CR 4-12, Jouan Inc., Winchester, VA, USA). Following removal of the supernatant, the pellet was washed in fresh Middlebrook 7H9GC broth and re-suspended in fresh supplemented MB (10 mL). The turbidity was adjusted to match McFarland standard No. 1 (3 × 10^8 cfu) with MB broth. A further 1:20 dilution of the culture was then performed in MB broth. The antimicrobial susceptibility of the mycobacterial species was investigated in a 96-well plate format. In these experiments, sterile deionized water (300 µL) was added to all outer-perimeter wells of the plates to minimize evaporation of the medium in the test wells during incubation. Each evaluated compound (100 µL) was incubated with the mycobacterial species (100 µL). Dilutions of each compound were prepared in duplicate. For all synthesized compounds, final concentrations ranged from 1,000 µg/mL to 8 µg/mL. All compounds were prepared in DMSO and subsequent dilutions were made in supplemented MB. The plates were sealed with parafilm and incubated at 37 °C for 11 days.
Following incubation, a 10% addition of alamarBlue (AbD Serotec, Kidlington, UK) was mixed into each well and readings at 570 nm and 600 nm were taken, initially for background subtraction and subsequently after 24 h re-incubation. […] For non-interfering compounds, a blue colour in the well was interpreted as an absence of growth and a pink colour was scored as growth. Furthermore percent reduction of alamarBlue was calculated to generate quantitative data on cell viability during exposure to antimycobacterial compounds over a period of 5 days. The formula used to determine percent reduction of alamarBlue has been standardized for colorimetric analysis by Abd Serotec.
The MIC value is routinely and widely used in bacterial assays and is a standard detection limit according to the Clinical and Laboratory Standards Institute.

Series [2] is described as follows: Lipophilicity determination by RP-HPLC (capacity factor, log k). The settings on record: end-capped C18, isocratic MeOH 60%/H2O 40%. The class given is physicochemical. On the procedure:
Lipophilicity is a property that has a major effect on bioavailability, biotransformation as well as pharmacological activity, because drugs cross biological membranes through passive transport, which strongly depends on their lipophilicity. Lipophilicity of the studied compounds was determined by RP‑HPLC as capacity factor logarithm (log k). The procedure was performed under isocratic conditions with methanol as an organic modifier in the mobile phase using an end-capped non-polar C18 stationary RP column. The results of ring-substituted naphthalene-1-carboxanilides 1–8c are shown in Table 1 and illustrated in Figure 1. […] Lipophilicity was also calculated as log P using ACD/Percepta ver. 2012 (Advanced Chemistry Development, Inc., Toronto, ON, Canada).
A HPLC system Agilent 1200 equipped with DAD detector (Agilent, USA) was used. A chromatographic column Symmetry® C18 5 μm, 4.6 × 250 mm, Part No. WAT054275 (Waters Corp., Milford, MA, USA) was used. The HPLC separation process was monitored and evaluated by EZChrom Elite software ver. 3.3.2 (Agilent, USA). Isocratic elution by a mixture of MeOH p.a. (60%) and H2O-HPLC Mili-Q grade (40%) as a mobile phase was used. The total flow of the column was 1.0 mL/min, injection 20 μL, column temperature 40 °C, and sample temperature 10 °C. The detection wavelength 210 nm was chosen. The KI methanolic solution was used for the dead time (tD) determination. Retention times (tR) were measured in minutes. The capacity factors k were calculated according to formula k = (tR − tD)/tD, where tR is the retention time of the solute, whereas tD denotes the dead time obtained using an unretained analyte. Log k, calculated from the capacity factor k, is used as the lipophilicity index converted to log P scale.

Series [3] concerns photosynthetic electron transport (PET) in isolated spinach chloroplasts. Kind of series: Inhibition of photosynthetic electron transport (PET) in isolated spinach chloroplasts. In kind it is biochemical, Spinacia oleracea L. The settings on record: DCPIP photoreduction. On the procedure: The PET-inhibiting activity was expressed by IC50 value, i.e., compound concentration in mol/L causing 50% inhibition of PET.
(§1) Chloroplasts were prepared from spinach (Spinacia oleracea L.) according to Masarovicova and Kralova. The inhibition of photosynthetic electron transport (PET) in isolated spinach chloroplasts was determined spectrophotometrically (Genesys 6, Thermo Scientific, USA), using an artificial electron acceptor 2,6-dichlorophenol-indophenol (DCIPP) according to Kralova et al., and the rate of photosynthetic electron transport was monitored as a photoreduction of DCPIP. The measurements were carried out in phosphate buffer (0.02 mol/L, pH 7.2) containing sucrose (0.4 mol/L), MgCl2 (0.005 mol/L) and NaCl (0.015 mol/L). The chlorophyll content was 30 mg/L in these experiments and the samples were irradiated (~100 W/m^2 with 10 cm distance) with a halogen lamp (250 W) using a 4 cm water filter to prevent warming of the samples (suspension temperature 22 °C). The studied compounds were dissolved in DMSO due to their limited water solubility. […] The inhibitory efficiency of the studied compounds was expressed by IC50 values, i.e., by molar concentration of the compounds causing 50% decrease in the oxygen evolution rate relative to the untreated control.

A short description of series [4]: Solubility in PET tested medium. In kind it is physicochemical. The note with it: PET assay medium, phosphate buffer pH 7.2, DMSO up to 4%. On the procedure:
as §1

Where [5] appears, read: 264 h, clinical isolate CIT03, 11 days at 37 °C, alamarBlue, MIC = 90% or greater reduction of growth, read-out: MAP MIC/IC90.

As for `CO[C@H]1/C=C/O[C@@]2(C)Oc3c(C)c(O)c4c(O)c(c(/C=N/N5CCN(C)CC5)c(O)c4c3C2=O)NC(=O)/C(C)=C\C=C\[C@H](C)[C@H](O)[C@@H](C)[C@@H](O)[C@@H](C)[C@H](OC(C)=O)[C@@H]1C` [RIF, rifampicin, reference compound], the MIC in series [1] (264 h, read-out: MAP MIC/IC90) turned out to be 109 µM; in series [1] (clinical isolate CIT03, read-out: MIC) it was 90 µg/mL. The “MAP MIC/IC90” value in series [1] (clinical isolate CIT03, 11 days at 37 °C, alamarBlue, MIC = 90% or greater reduction of growth) was found to be 109 µM.
In series [2], `O=C(Nc1ccccc1)c1cccc2ccccc12` [Compound 1, N-Phenylnaphthalene-1-carboxamide] registered a log k of 0.5620.
Same read-out and setting: for `Cc1ccccc1NC(=O)c1cccc2ccccc12` [Compound 3a, N-(2-Methylphenyl)naphthalene-1-carboxamide] the value was 0.5309.
`O=C(Nc1ccc([N+](=O)[O-])cc1)c1cccc2ccccc12` [Compound 8c, N-(4-Nitrophenyl)naphthalene-1-carboxamide] had a half-maximal inhibitory concentration (IC50) in series [3] of 129 µM. Besides, the log k in series [2] turned out to be 0.7328.
On to `COc1ccc(NC(=O)c2cccc3ccccc23)cc1` [Compound 2c, N-(4-Methoxyphenyl)naphthalene-1-carboxamide], for which, in series [2], the log k came to 0.4953.
As to `O=C(Nc1ccc(Br)cc1)c1cccc2ccccc12` [Compound 6c, N-(4-Bromophenyl)naphthalene-1-carboxamide], the “solubility in tested medium (PET experiments)” value (“solubility in tested medium” below) in series [4] is recorded as “limited solubility”. Also, in series [1] (setting [5]), the MIC amounted to 184 µM. The IC50 in series [3] turned out to be 365 µM. Further, the log k in series [2] came out at 0.9985.
`O=C(Nc1ccccc1C(F)(F)F)c1cccc2ccccc12` [Compound 7a, N-[2-(Trifluoromethyl)phenyl]naphthalene-1-carboxamide]: the “solubility in tested medium” value in series [4] is “precipitation”. The same molecule gave a log k in series [2] of 0.7595.
For `O=C(Nc1ccccc1F)c1cccc2ccccc12` [Compound 4a, N-(2-Fluorophenyl)naphthalene-1-carboxamide] the same measures were “precipitation” and 0.5592.
For `NNC(=O)c1ccncc1` [INH, isoniazid, reference compound], the MIC in series [1] (setting [5]) is 1820 µM.
Consider `O=C(Nc1cccc(Br)c1)c1cccc2ccccc12` [Compound 6b, N-(3-Bromophenyl)naphthalene-1-carboxamide], for which the “solubility in tested medium” value in series [4] is recorded as “limited solubility”. The molecule further came in with an IC50 in series [3] of 278 µM. Besides, the log k in series [2] is reported as 1.0047.
In series [3], `O=C(Nc1ccc(Cl)cc1)c1cccc2ccccc12` [Compound 5c, N-(4-Chlorophenyl)naphthalene-1-carboxamide] returned an IC50 of 102 µM. Also, in series [2], the log k was 0.9223.
Consider `CN(C)C(=O)Nc1ccc(Cl)c(Cl)c1` [DCMU, 3-(3,4-dichlorophenyl)-1,1-dimethylurea, reference compound], for which the 50% inhibitory concentration (IC50) in series [3] was ~1.9 µM and 1.9 µM.
In series [3], `O=C(Nc1cccc(Cl)c1)c1cccc2ccccc12` [Compound 5b, N-(3-Chlorophenyl)naphthalene-1-carboxamide] displayed an IC50 of 107 µM. In series [2], the log k was 0.9357.
The corresponding values for `O=C(Nc1cccc(C(F)(F)F)c1)c1cccc2ccccc12` [Compound 7b, N-[3-(Trifluoromethyl)phenyl]naphthalene-1-carboxamide] are 114 µM and 1.0862.
Regarding `O=C(Nc1ccc(F)cc1)c1cccc2ccccc12` [Compound 4c, N-(4-Fluorophenyl)naphthalene-1-carboxamide], the “solubility in tested medium” value in series [4] is “precipitation”. In series [2], this molecule gave a log k of 0.6315.
For `O=C(Nc1ccccc1Cl)c1cccc2ccccc12` [Compound 5a, N-(2-Chlorophenyl)naphthalene-1-carboxamide] the same measures were “precipitation” and 0.8322.
As for `O=C(Nc1ccccc1[N+](=O)[O-])c1cccc2ccccc12` [Compound 8a, N-(2-Nitrophenyl)naphthalene-1-carboxamide], the “solubility in tested medium” value in series [4] is on record as “limited solubility”. For the same molecule, the IC50 in series [3] is 476 µM. In addition, the log k in series [2] was 0.9090.
As for `O=C(Nc1ccc(C(F)(F)F)cc1)c1cccc2ccccc12` [Compound 7c, N-[4-(Trifluoromethyl)phenyl]naphthalene-1-carboxamide], the MIC in series [1] (setting [5]) turned out to be 793 µM. In series [3], it took 59 µM to reach half-maximal inhibition (IC50). For the same molecule, the log k in series [2] is on record as 1.1480.
For the molecule `O=C(Nc1ccccc1Br)c1cccc2ccccc12` [Compound 6a, N-(2-Bromophenyl)naphthalene-1-carboxamide], the “solubility in tested medium” value in series [4] is on record as “precipitation”. For the same molecule, the log k in series [2] was 0.8892.
Take `O=C(Nc1cccc([N+](=O)[O-])c1)c1cccc2ccccc12` [Compound 8b, N-(3-Nitrophenyl)naphthalene-1-carboxamide]: the “solubility in tested medium” value in series [4] was “limited solubility”. For the same molecule, inhibition in series [3] was half-maximal at 492 µM (IC50). For the same molecule, the log k in series [2] is on record as 0.8155.
